Laboratory results from US8470765B2, “Polypeptides and antibacterial or antiseptic use of same” (AnGes MG, Inc., priority 2009, dated 2013).
Converted amounts (≈) assume the structure as drawn. Like-named read-outs stand apart in the source and are kept apart here. No end group written: not given here.

Columns and labels:
[1] = system: Streptococcus pyogenes JCM5674
[2] = system: Acinetobacter baumanni JCM6841; conditions: JCM6841
[3] = system: Trichophyton rubrum NBRC9185; conditions: NBRC9185
[4] = system: Bacteroides fragilis JCM 11019
Candida krusei NBRC1395 = conditions: NBRC1395
[5] = system: Pseudomonas aeruginosa ATCC 27853; assay: ATP Assay (viability at 3 hours), Table 6; format: cell-based; conditions: for Pseudomonas aeruginosa ATP (viability, relative value to negative control): 3 h, 5 μg/mL
Experimental: (§1) Bacteria (Escherichia coli ATCC 25922, Pseudomonas aeruginosa ATCC 27853, Staphylococcus aureus ATCC29213, and Staphylococcus epidermidis JCM 2414) were inoculated to Mueller-Hinton broth: MHB or LB medium, and cultured at a temperature and period suited for each strain. From the thus obtained colonies, each strain was inoculated to a fresh liquid medium and cultured for 16 to 20 hours. Then an aliquot having a volume (10 to 50 μL) appropriate to each strain was inoculated to a fresh liquid medium and cultured for 4 to 6 hours, followed by the measurement of the absorbance at 600 nm. After comparing the turbidity with McFarland #0.5, the resultant was diluted with a medium. Each strain was added to about 10^5 CFU/mL (final concentration).
(§2) Each of the peptide solutions to be tested was diluted with the medium to obtain a solution of 10 μg/mL. As positive controls, tobramycin (TOB), oxacillin (OX) and meropenem (MEPM) were used. By dilution with sterilized purified water to 1.0 mg/mL, positive control-containing media having concentrations of […], respectively for TOB; 0.5, 0.12 and 0.06 μg/mL, respectively, for OX; and 1.0, 0.25, 0.12, 0.06, 0.03 and 0.008 μg/mL respectively, for MEPM, were prepared. To a 96-well microtiter plate, 0.1 mL of the inoculation solution and 0.1 mL of the peptide- or positive control-containing medium having the respective concentration were added, and cultured at 37° C. for 3 hours. The well not containing the sample was used as a negative control. After the culturing, ATP was measured using BacTiter-Glo Microbial Cell Viability Assay kit of PROMEGA, and compared with that in the negative control to obtain a relative value which was defined as a viability. The antibacterial activity was evaluated based on the viability at 3 hours later using ATP as an index.
(§3) The medium used in this test for bacteria was Mueller-Hinton broth. Independent experiments were carried out twice for each strain.

[6] = system: Staphylococcus aureus ATCC29213; assay: ATP Assay (viability at 3 hours), Table 6; format: cell-based; conditions: for Staphylococcus aureus ATP (viability, relative value to negative control): 3 h, 5 μg/mL
Experimental: as §1, §2, §3

[7] = system: Escherichia coli ATCC 25922; assay: ATP Assay (viability at 3 hours), Table 6; format: cell-based; conditions: for Escherichia coli ATP (viability, relative value to negative control): 3 h, 5 μg/mL
Experimental: as §1, §2, §3

[8] = system: Salmonella enteritidis IID 604; conditions: IID 604
[9] = system: Trichophyton mentagrophytes NBRC6124; conditions: NBRC6124
[10] = system: Bacillus subtilis NBRC3134; conditions: NBRC3134
[11] = system: Salmonella typhimurium JCM1652; conditions: JCM1652
[12] = system: Micrococcus luteus NBRC13867
[13] = system: Alternaria alternata JCM5800
[14] = system: Pseudomonas aeruginosa ATCC 27853; assay: microbe, parasite or virus in culture; format: cell-based
Experimental: (§4) Bacteria (Escherichia coli ATCC 25922, Pseudomonas aeruginosa ATCC 27853, Staphylococcus aureus ATCC29213, Klebsiella pneumoniae JCM 1662, Enterobacter cloacae JCM 1232, Enterobacter aerogenes JCM 1235 and Staphylococcus epidermidis JCM 2414) were inoculated to Mueller-Hinton broth: MHB or LB medium, and cultured at a temperature and period suited for each strain. From the thus obtained colonies, each strain was inoculated to a fresh liquid medium and cultured for 16 to 20 hours. Then an aliquot having a volume (10 to 50 appropriate to each strain was inoculated to a fresh liquid medium and cultured for 4 to 6 hours, followed by the measurement of the absorbance at 600 nm. After comparing the turbidity with McFarland #0.5, the resultant was diluted with a medium. Each strain was added to about 10^5 CFU/mL (final concentration). Each of the peptide solutions to be tested was diluted with MHB to obtain a solution of 128 μg/mL. […] As controls, tobramycin (TOB: aminoglucoside antibiotic), oxacillin (OX:β-lactam antibiotic), meropenem (MEPM: carbapenem antibiotic) and ciprofloxacin (new quinolone antibiotic) were used. […] To a 96-well microtiter plate, 0.1 mL of the inoculation solution and 0.1 mL of the peptide- or positive control-containing medium having the respective concentration were added, and cultured at 37° C. for 16 to 24 hours (or a time period suited for the growth of the respective strain). The well not containing the sample was used as a negative control. After the culturing, the growth was visually observed, and the minimum concentration at which the growth was inhibited was defined as the minimum growth inhibition concentration (MIC). The medium used in this test for bacteria was Mueller-Hinton broth. Independent experiments were carried out twice or more for each strain.

[15] = system: Staphylococcus aureus ATCC29213; assay: microbe, parasite or virus in culture; format: cell-based
Experimental: as §4

[16] = system: Staphylococcus epidermidis JCM 2414; assay: microbe, parasite or virus in culture; format: cell-based; conditions: for MIC Staphylococcus epidermidis: JCM 2414
Experimental: as §4

[17] = system: Escherichia coli ATCC 25922; assay: microbe, parasite or virus in culture; format: cell-based; conditions: Table 4; two tests, first/second value where not identical
Experimental: as §4

Fusarium solani JCM11383 = conditions: JCM11383
[18] = system: Actinobacillus actinomycetemcomitans JCM2434
[19] = system: Fusobacterium nucleatum JCM 11025; conditions: JCM 11025
[20] = system: methicillin-sensitive Staphylococcus (MSSA) MSSA(i); assay: organism not typed; conditions: read-out: MIC MSSA(i)
Experimental: as §1, with “ATCC29213, Klebsiella pneumoniae JCM 1662, Enterobacter cloacae JCM 1232, Enterobacter aerogenes JCM 1235” for “ATCC29213,”, “50” for “50 μL)”
(§5) Further, the antibacterial activities against the clinical strains collected and isolated from infected patients were also examined. The tests were carried out for two methicillin-resistant Staphylococcus (MRSA) (MRSA (i) and (ii)), two methicillin-sensitive Staphylococcus (MSSA) (MSSA (i) and (ii)), five Pseudomonas aeruginosa, Pseudomonas aeruginosa 1, Pseudomonas aeruginosa 6, Pseudomonas aeruginosa 8. Pseudomonas aeruginosa 9 and Pseudomonas aeruginosa 12, totally 9 clinical strains. The MRSA and MSSA clinical strains were tested by the same method as Staphylococcus aureus ATCC29213, and Pseudomonas clinical strains were tested by the same method as Pseudomonas aeruginosa ATCC 27853.
(§6) Each of the peptide solutions to be tested was diluted with MHB to obtain a solution of 128 μg/mL. This solution was serially diluted with the medium to prepare peptide-containing media having concentrations of 128, 64, 32, 16, 8.0, 4.0 and 2.0 μg/mL respectively. […] By dilution with sterilized purified water to 1.0 mg/mL, positive control-containing media having concentrations of 16, 8, 4, 2, 1.0, 0.25, 0.12 and 0.06 μg/mL, respectively for TOB; 0.5, 0.12 and 0.06 μg/mL, respectively, for OX; and 16, 8, 4, 2, 1.0, 0.25, 0.12, 0.06, 0.06, 0.03 and 0.008 μg/mL, respectively, for MEPM, were prepared.
(§7) To a 96-well microtiter plate, 0.1 mL of the inoculation solution and 0.1 mL of the peptide- or positive control-containing medium having the respective concentration were added, and cultured at 37° C. for 16 to 24 hours (or a time period suited for the growth of the respective strain). The well not containing the sample was used as a negative control. After the culturing, the growth was visually observed, and the minimum concentration at which the growth was inhibited was defined as the minimum growth inhibition concentration (MIC).
(§8) The medium used in this test for bacteria was Mueller-Hinton broth. Independent experiments were carried out twice or more for each strain.

[21] = system: methicillin-resistant Staphylococcus (MRSA) MRSA(i); assay: organism not typed; conditions: read-out: MIC MRSA(i)
Experimental: as §1, with “ATCC29213, Klebsiella pneumoniae JCM 1662, Enterobacter cloacae JCM 1232, Enterobacter aerogenes JCM 1235” for “ATCC29213,”, “50” for “50 μL)”
as §5, §6, §7, §8

[22] = system: methicillin-sensitive Staphylococcus (MSSA) MSSA(ii); assay: organism not typed; conditions: read-out: MIC MSSA(ii)
Experimental: as §1, with “ATCC29213, Klebsiella pneumoniae JCM 1662, Enterobacter cloacae JCM 1232, Enterobacter aerogenes JCM 1235” for “ATCC29213,”, “50” for “50 μL)”
as §5, §6, §7, §8

[23] = system: methicillin-resistant Staphylococcus (MRSA) MRSA(ii); assay: organism not typed; conditions: read-out: MIC MRSA(ii)
Experimental: as §1, with “ATCC29213, Klebsiella pneumoniae JCM 1662, Enterobacter cloacae JCM 1232, Enterobacter aerogenes JCM 1235” for “ATCC29213,”, “50” for “50 μL)”
as §5, §6, §7, §8

[24] = Table 4, two tests, first/second value where not identical

Compound	MIC Streptococcus pyogenes [1] [µg/mL]	MIC Acinetobacter baumanni [2] [µg/mL]	MIC Trichophyton rubrum [3] [µg/mL]	MIC Candida krusei (Candida krusei NBRC1395) [µg/mL]	Pseudomonas aeruginosa ATP (viability, relative value to negative control) [5]	Staphylococcus aureus ATP (viability, relative value to negative control) [6]	Escherichia coli ATP (viability, relative value to negative control) [7]	MIC Salmonella Enteritidis [8] [µg/mL]	MIC Trichophyton mentagrophytes [9] [µg/mL]	MIC Bacillus subtilis [10] [µg/mL]	MIC Salmonella Typhimurium [11] [µg/mL]	MIC Micrococcus luteus [12] [µg/mL]	MIC Alternaria alternata ([13]; JCM5800) [µg/mL]	MIC Pseudomonas aeruginosa ([14]; ATCC 27853) [µg/mL]	MIC Staphylococcus epidermidis [16] [µg/mL]	MIC Escherichia coli [17]	MIC Fusarium solani (Fusarium solani JCM11383) [µg/mL]	MIC Actinobacillus actinomycetemcomitans [18] [µg/mL]	MIC Fusobacterium nucleatum [19] [µg/mL]	MIC Bacteroides fragilis [4, 24]	also measured
GRLKRMGERLKRKIQKLIRL-NH2 [SRP-21]	8	32	128	32	3.8	1.8	3.7	2	64	2	2	1	64	8	8000 to 16000	16/32	16	32	4	–	MIC Bacteroides fragilis ([4]; JCM 11019): 16 µg/mL; MIC Staphylococcus aureus [15, 24]: 8/32
Ac-KLIFLRELRRLRKRLKRKLR-NH2 [SRP-20]	32	16	32	16	1.1	3.2	6.2	4	16	2	4	2	–	–	8000 to 16000	8/16	4	128	4	8/16	MIC Alternaria alternata [13, 24]: 32/64; MIC Pseudomonas aeruginosa [14, 24]: 8/16; MIC Staphylococcus aureus ([15]; ATCC29213): 16 µg/mL
Ac-GRLKRMGERLKRKIQKWIRW-NH2 [SRP-19]	16	32	64	16	1.6	2.1	2.9	4	32	2	4	2	64	8	8	8/16	16	64	4	16/8	MIC Staphylococcus aureus ([15]; ATCC29213): 8 µg/mL
Cc1onc(-c2ccccc2)c1C(=O)N[C@@H]1C(=O)N2[C@@H]1SC(C)(C)[C@@H]2C(=O)O [oxacillin, reference compound]	–	–	–	–	–	–	–	–	–	–	–	–	–	–	–	–	–	–	–	–	MIC [20]: 8 µg/mL (≈ 19.9 µM); MIC [21]: < 4000 µg/mL; MIC [22]: 2 µg/mL (≈ 4.98 µM); MIC [23]: > 8000 µg/mL; viability at 10 µg/mL ([5]; ATCC27853, 3 h, read-out: Pseudomonas aeruginosa ATP (viability, relative value to negative control)): 100%; viability at 10 µg/mL ([6]; ATCC29213, 3 h, read-out: Staphylococcus aureus ATP (viability, relative value to negative control)): 121%; viability at 10 µg/mL ([7]; ATCC25922, 3 h, read-out: Escherichia coli ATP (viability, relative value to negative control)): 142%; MIC ([15]; Staphylococcus aureus, ATCC29213, read-out: MIC Staphylococcus aureus, Table 4, two tests, first/second value where not identical): 0.15 to 0.5 µg/mL (≈ 0.374 to 1.25 µM); MIC ([16]; Staphylococcus epidermidis, JCM2414, read-out: MIC Staphylococcus epidermidis, Table 4, two tests, first/second value where not identical): 0.15 to 0.5 µg/mL (≈ 0.374 to 1.25 µM)
